Measurements taken from paper PMC6587507, “Comparison of the metabolism of 10 chemicals in human and pig skin explants” (Journal of Applied Toxicology, 2018).
Where two headings read alike, the source gives them in different places. Marks after values point to notes of the source that are not given here. One block for each compound: values may come before it.

Experiments:
[1] = ref Chemspider (www.chemspider.com), cited from earlier work
[2] = tested on: human abdominal skin explants; assay: Cutaneous distribution and mass balance of radioactivity in human skin explants
Procedure: (§1) Human abdominal skin was obtained (with consent for research from a commercial supplier [L’Union Clinic, Rangueil hospital and Icelltis, Toulouse, France] with certified ethical procedures) from six male and 34 female healthy donors, 41 ± 11 years of age, undergoing cosmetic surgery. Abdominal skin was kept at 4°C during transports and placed in culture within 3 hours of surgery. Pig ear skin was a waste product of the meat industry (without hot steam treatment) from domestic pigs (female Pietrain breed, 6 months old, 80‐100 kg) obtained from a local slaughterhouse (Montauban, France). Ears were taken from the animals within 5 minutes of slaughter and were kept at 4°C during transport to the laboratory, which lasted a maximum of 2 hours. Pig skin samples were dried and then gently shaved.
(§2) The experiment and the preparation of the culture medium were performed under sterile conditions. Human and pig skin was cut with a dermatome to a thickness of 450 ± 50 μm. Skin punches were seeded dermal side down in polycarbonate Transwell® inserts from Corning Life Sciences (Avon, France; 4.16 cm^2 application area with an 8 μm pore size filter). […] The inserts were placed in a six‐well plate containing 1.5 mL culture medium and the skin explants incubated in a standard incubator at 37°C, under an atmosphere of 5% CO2 and 50 ± 10% relative humidity. The culture medium was Dulbecco's modified Eagle medium without phenol red supplemented with 8 mM L‐glutamine, 2 μg/mL streptomycin/penicillin, 25 ng/mL fungizone and 50 ng/mL gentamycin. Skin explants were incubated for 1 hour before application of the formulation.
(§3) The dosing volume was 10 μL/cm^2. For pig skin metabolism studies, which were carried out before the human skin experiments to ensure the analytics were optimal, 2.4 nmol/cm^2 of each chemical (only the ^14C‐labeled form) was applied on the skin and incubated for 24 hours for the measurement of metabolites in the medium. These tissues were further incubated for a total of 48 hours, with a replacement of the culture medium after 24 hours. This longer incubation time and the standard doses of 2.4 nmol/cm^2 were used to maximize the likelihood of the skin forming metabolites to develop analytical methods. The metabolites profiles in pig and human skin were compared in the medium sample at 24 hours of incubation. The metabolite profiles for the 48‐hour timepoint are not reported here since humans skin metabolism was measured at 24 hours only; however, for completeness, the distribution of radioactivity at the end of both pig (48 hours) and human (24 hours) skin incubations is reported. […] The doses were obtained by mixing radiolabeled and cold chemical. One replicate disc per donor and per dose was used. All chemicals were tested on four donors of pig and human skin, except for 2‐AAF and 4‐amino‐3‐nitrophenol (4‐A‐3‐NP), for which three donors were used. The medium was removed after 24 hours of incubation and stored at −20°C for analysis.
(§4) At the end of the experiment, the trans‐wells were dismantled and washed with appropriate solvent for each chemical. […] The cotton swabs were placed in 5 mL of appropriate solvent in a scintillation counting flask and placed in a sonicator bath for 20 minutes. Aliquots of 1 mL were counted by liquid scintillation, after addition of 15 mL of scintillation liquid. Tissue culture inserts were washed with 10 mL of appropriate solvent. One aliquot of 1 mL was counted by liquid scintillation, after addition of 15 mL of scintillation liquid. After media removal, wells were washed twice with 1 mL of the appropriate solvent. Washing solutions were counted by liquid scintillation, after addition of 15 mL of scintillation liquid.
(§5) Pig skin explants were digested using 3 mL Soluable (60°C for 24 hours) and counted by liquid scintillation. Skin extraction process was adapted according to the physicochemical properties of each chemical and its potential metabolites.

[3] = tested on: pig ear skin explants; assay: Cutaneous distribution and mass balance of radioactivity in pig skin explants
Procedure: as §1, §2, §3, §4, §5

[4] = tested on: human abdominal skin explants
Procedure: as §1, §2, §3
(§6) After centrifugation, a 100 μL aliquot of the extract was counted by liquid scintillation. The pellet was dissolved in 3 mL Soluable (60°C, 24 hours) and then counted by liquid scintillation.
(§7) Analysis of the chemicals and their metabolites in medium after 24 hours of incubation with pig and human skin was measured by radio‐high‐performance liquid chromatography (HPLC) using an HPLC 1100 Series, Agilent and a Flow Scintillation Analyzer, Radiomatic 610 TR, Perkin Elmer (Villebon‐sur‐Yvette, France). […] To confirm that metabolites were the same in pig and human skin, medium samples were co‐injected on the new column. The metabolites were identified by LC‐electrospray ionization‐HRMS (HPLC‐ESI‐HRMS) with a RSLC3000 HPLC system coupled to a LTQ‐Orbitrap XL mass spectrometer (Thermo Scientific). The HPLC analytical conditions for identification and quantification of the metabolites for each chemical are summarized in Supporting information Table S1.

[5] = tested on: pig ear skin explants
Procedure: as §1, §2, §3, §6, §7

[6] = human skin, end of incubation (24 h), mean ± SD
[7] = pig skin, end of incubation (48 h), mean ± SD
[8] = cinnamyl alcohol applied to human skin, 24 h
[9] = cinnamyl alcohol applied to pig skin, 24 h
[10] = cinnamyl alcohol applied to pig skin, medium 24 h
[11] = propyl paraben applied to human skin, 24 h
[12] = propyl paraben applied to pig skin, 24 h
[13] = vanillin applied to human skin, 24 h
[14] = vanillin applied to pig skin, 24 h

Compound: CC(=O)Nc1ccc2c(c1)Cc1ccccc1-2 [2‐AAF, 2‐acetyl aminofluorene]
- Maximum solubility in ethanol ([1]; in ethanol): 9600 µg/mL
- LogP [1]: 3.10
- Maximum water solubility ([1]; water): 4 µg/mL
- % Radioactivity in culture media after 24 h ([2]; human skin, 24 h): 48.3 ± 4.2%
- Mass balance (% of applied dose at end of incubation) ([2]; human skin, 24 h): 91.6 ± 4.5 % of applied dose
- Medium radioactivity [2, 6]: 48.3 ± 4.2 % of the applied dose
- Skin radioactivity [2, 6]: 40.5 ± 5.5 % of the applied dose
- Skin surface radioactivity [2, 6]: 2.8 ± 0.3 % of the applied dose
- % Radioactivity in culture media after 24 h ([3]; pig skin, 2.4 nmol/cm^2): 52.8 ± 2.3%
- Mass balance (% of applied dose at end of incubation) ([3]; pig skin, 48 h, 2.4 nmol/cm^2): 87.8 ± 1.1 % of applied dose
- Medium radioactivity [3, 7]: 73.9 ± 1.1 % of the applied dose
- Skin radioactivity [3, 7]: 12.6 ± 1.5 % of the applied dose
- Skin surface radioactivity [3, 7]: 1.4 ± 0.4 % of the applied dose

- Amount of metabolite in the medium after 24 h [4]: 35.0 ± 2.4 % Applied dose
- Amount of metabolite in the medium after 24 h [5]: 45.5 ± 0.2 % Applied dose
Compound: Nc1ccc(OC2OC(C(=O)O)C(O)C(O)C2O)cc1[N+](=O)[O-] (stereo not shown) [4‐A‐3‐NP‐glucuronide]

- Amount of metabolite in the medium after 24 h [4]: 9.98 ± 2.7 % Applied dose
- Amount of metabolite in the medium after 24 h [5]: 1.8 ± 0.3 % Applied dose
Compound: Nc1ccc(OS(=O)(=O)O)cc1[N+](=O)[O-] [4‐A‐3‐NP‐sulfate]

Compound: O=C(O)c1ccccc1 [B (benzoic acid), benzoic acid]
- Amount of metabolite in the medium after 24 h [4, 8]: 0.0 ^* % Applied dose
- Amount of metabolite in the medium after 24 h [5, 9]: 4.8 ± 1.0 % Applied dose
- Metabolite as share of the total metabolites [5, 10]: 8 % of the total metabolites

Compound: Cn1c(=O)c2c(ncn2C)n(C)c1=O [Caffeine]
- % Radioactivity in culture media after 24 h ([2]; human skin, 24 h): 81.4 ± 3.3%
- Mass balance (% of applied dose at end of incubation) ([2]; human skin, 24 h): 104.0 ± 0.7 % of applied dose
- Medium radioactivity [2, 6]: 81.4 ± 3.3 % of the applied dose
- Skin radioactivity [2, 6]: 21.8 ± 2.5 % of the applied dose
- Skin surface radioactivity [2, 6]: 0.8 ± 0.8 % of the applied dose
- % Radioactivity in culture media after 24 h ([3]; pig skin, 2.4 nmol/cm^2): 72.0 ± 4.0%
- Mass balance (% of applied dose at end of incubation) ([3]; pig skin, 48 h, 2.4 nmol/cm^2): 109.2 ± 3.3 % of applied dose
- Skin radioactivity [3, 7]: 8.4 ± 0.4 % of the applied dose
- Skin surface radioactivity [3, 7]: 8.8 ± 10.6 % of the applied dose

- Amount of metabolite in the medium after 24 h ([4]; 7‐EC applied to human skin, 24 h): 1.4 ± 0.4 % Applied dose
- Amount of metabolite in the medium after 24 h ([5]; 7‐EC applied to pig skin, 24 h): 1.5 ± 0.8 % Applied dose
Compound: O=c1ccc2ccc(O)cc2o1 [HC, 7‐hydroxycoumarin]

- Amount of metabolite in the medium after 24 h [4]: 2.2 ± 1.2 % Applied dose
- Amount of metabolite in the medium after 24 h [5]: 4.9 ± 0.9 % Applied dose
Compound: O=C(O)[C@H]1O[C@@H](Oc2ccc3ccc(=O)oc3c2)[C@H](O)[C@@H](O)[C@@H]1O [HC‐glucuronide]

- Amount of metabolite in the medium after 24 h [4]: 0.9 ± 0.6 % Applied dose
- Amount of metabolite in the medium after 24 h [5]: 2.6 ± 0.9 % Applied dose
Compound: O=c1ccc2ccc(OS(=O)(=O)[O-])cc2o1.[K+] [HC‐sulfate]

Compound: O=C(O[C@@H]1O[C@H](C(=O)O)[C@@H](O)[C@H](O)[C@H]1O)c1ccccc1 [II (benzoic acid glucuronide), benzoic acid glucuronide]
- Amount of metabolite in the medium after 24 h [4]: 4.6 ± 0.4 % Applied dose
- Amount of metabolite in the medium after 24 h [5]: 0.5 ± 0.04 % Applied dose

- Amount of metabolite in the medium after 24 h [4, 11]: 0.5 ± 0.03 % Applied dose
- Amount of metabolite in the medium after 24 h [5, 12]: 5.6 ± 0.3 % Applied dose
Compound: O=C(O)/C=C\C(=O)O [II (maleic acid), maleic acid]

- Amount of metabolite in the medium after 24 h [5]: 2.9 ± 0.8 % Applied dose
Compound: COc1cc(C=O)ccc1O[C@@H]1O[C@H](C(=O)O)[C@@H](O)[C@H](O)[C@H]1O [III (vanillin glucuronide), vanillin glucuronide]

Compound: O=Cc1ccc(O)c(O)c1 [IV (Protocatechuic aldehyde), protocatechuic aldehyde]
- Amount of metabolite in the medium after 24 h [4, 13]: 2.4 ± 1.1 % Applied dose
- Amount of metabolite in the medium after 24 h [5, 14]: 20.7 ± 1.0 % Applied dose
- Amount of metabolite in the medium after 24 h ([5]; vanillin applied to pig skin, 24 h, listed as protocatechuic aldehyde): 21 % Applied dose

- % Radioactivity in culture media after 24 h ([2]; both, human, 24 h): 66.0 ± 9.2%
- Mass balance (% of applied dose at end of incubation) ([2]; both, human, 24 h): 91.8 ± 6.6 % of applied dose
- Medium radioactivity ([2]; both, human, 24 h): 61.5 ± 3.9 % of the applied dose
- Skin radioactivity ([2]; both, human, 24 h): 27.6 ± 7.0 % of the applied dose
- Skin surface radioactivity ([2]; both, human, 24 h): 2.8 ± 2.3 % of the applied dose
- Mass balance (% of applied dose at end of incubation) ([3]; female, Pietrain, pig, 48 h): 98.7 ± 3.3 % of applied dose
- Medium radioactivity ([3]; female, Pietrain, pig, 48 h): 77.8 ± 4.8 % of the applied dose
- Skin radioactivity ([3]; female, Pietrain, pig, 48 h): 15.9 ± 3.0 % of the applied dose
- Skin surface radioactivity ([3]; female, Pietrain, pig, 48 h): 5.0 ± 1.8 % of the applied dose
- Number of metabolites detected in the culture medium ([4]; both, human, 24 h): 12
- Parent compound in the medium after 24 h ([4]; both, human, 24 h): 0.2 ± 0.2 % Applied dose
- Total metabolites in the medium after 24 h ([4]; both, human, 24 h): 55.8 ± 2.9 % Applied dose
- Parent compound in the medium after 24 h ([5]; female, Pietrain, pig, 24 h): 0.0 % Applied dose
- Total metabolites in the medium after 24 h ([5]; female, Pietrain, pig, 24 h): 50.3 ± 1.1 % Applied dose
Compound: CCCOC(=O)c1ccc(O)cc1 [Propyl paraben]

- Amount of metabolite in the medium after 24 h [4]: 33.7 ± 0.6 % Applied dose
- Amount of metabolite in the medium after 24 h [5]: 48.6 ± 0.8 % Applied dose
Compound: O=C(O)C1OC(Oc2cccc(O)c2)C(O)C(O)C1O (stereo not shown) [R‐glucuronide]

- Amount of metabolite in the medium after 24 h [4]: 8.2 ± 0.1 % Applied dose
- Amount of metabolite in the medium after 24 h [5]: 0.5 ± 0.03 % Applied dose
Compound: O=S(=O)(O)Oc1cccc(O)c1 [R‐sulfate]

Compound: O=C(O)CNC(=O)c1ccccc1 [V (benzoic acid‐glycine conjugate), benzoylglycine]
- Amount of metabolite in the medium after 24 h [4, 8]: 1.3 ± 0.1 % Applied dose
- Amount of metabolite in the medium after 24 h [5, 9]: 4.4 ± 1.1 % Applied dose

- Amount of metabolite in the medium after 24 h [4, 13]: 33.5 ± 4.0 % Applied dose
- Amount of metabolite in the medium after 24 h ([4]; vanillin applied to human skin, 24 h, listed as vanillic acid): 34 % Applied dose
- Amount of metabolite in the medium after 24 h [5, 14]: 5.8 ± 0.1 % Applied dose
Compound: COc1cc(C(=O)O)ccc1O [V (vanillic acid), vanillic acid]

- Amount of metabolite in the medium after 24 h [4, 8]: 0.8 ± 1.5 % Applied dose
- Amount of metabolite in the medium after 24 h [5, 9]: 9.0 ± 0.4 % Applied dose
- Metabolite as share of the total metabolites [5, 10]: 15 % of the total metabolites
Compound: O=C(O)/C=C/c1ccccc1 [VI (cinnamic acid), cinnamic acid]

- Amount of metabolite in the medium after 24 h [4, 11]: 42.09 ± 2.8 % Applied dose
- Amount of metabolite in the medium after 24 h [5, 12]: 9.5 ± 0.6 % Applied dose
- Amount of metabolite in the medium after 24 h ([5]; propyl paraben applied to pig skin, 24 h, listed as 4‐hydroxybenzoic acid): 9.5 % Applied dose
Compound: O=C(O)c1ccc(O)cc1 [X (4‐HBA), 4‐hydroxybenzoic acid]

- Amount of metabolite in the medium after 24 h [4]: 18.0 ± 0.9 % Applied dose
- Metabolite as share of the total metabolites [4]: 25 % of the total metabolites
- Amount of metabolite in the medium after 24 h [5]: 15.7 ± 1.3 % Applied dose
- Metabolite as share of the total metabolites [5]: 27 % of the total metabolites
Compound: hydroxycinnamic acid [I (HCA)]
